Reference: EP0506011A1, “Tetrazoleacetic acid derivatives having aldose reductase inhibitory activity” (Wakamoto Pharmaceutical Co., Ltd., priority 1991, dated 1992)

target: T1, aldose reductase (Rattus norvegicus, UniProt P07943); assay: Test for Examining Aldose Reductase Inhibitory Effect (rat lens enzyme, DL-glyceraldehyde substrate, absorbance at 340 nm); type: biochemical; conditions: aldose reductase solution from crystalline lenses of SD rats; DL-glyceraldehyde 10 mM; 30°C for 5 minutes; pH 5.2; compound at 10 ⁻⁶ M, 10⁻⁷ M or 10 ⁻⁸ M; read-out: IC₅₀
T1 construct: The lenses were homogenized in 3 volumes of 135 mM sodium potassium phosphate buffer (pH 7.0) and centrifuged; from tissue; host or cells: crystalline lenses of six-week-old male SD rats
Procedure: Six-week-old male SD rats were anesthetized with ether and killed. Then their crystalline lenses were immediately removed and stored at -80 °C . […] The resulting supernatant was dialyzed overnight against 0.05 M sodium chloride solution to obtain an aldose reductase solution. All operations were conducted at 4 °C and the enzyme solution was stored at -80°C .
More specifically, 0.1 ml of DL-glyceraldehyde (final concentration: 10 mM) was added to 0.9 ml of 100 mM sodium potassium phosphate buffer (pH 5.2) which contained lithium sulfate (final concentration: 400 mM), reduced nicotinamide adenine dinucleotide phosphate (final concentration: 0.15 mM), the enzyme solution, and the compound to be evaluated (final concentration: 10 ⁻⁶ M, 10⁻⁷ M or 10 ⁻⁸ M), and then the reaction was conducted at 30°C for 5 minutes. During the reaction, the change in the absorbance at 340 nm with time was monitored.
The maximum reducing rate of the absorbance (U) during the reaction was determined. By subtracting, from this value, the maximum reducing rate (U₀) at 340 nm of the reaction solution before the addition of the substrate (DL-glyceraldehyde), the reaction rate (V = U - U₀) was calculated as a true reaction rate in the presence of the compound to be tested. The same procedure was repeated except for the absence of the compound to be tested. A true reaction rate (V₀) in case the enzyme was not inhibited was calculated (V₀ = U¹ - U₀¹). The aldose reductase inhibitory activity of the test compounds was determined according to the following formula: Rate of Inhibition (%) = (V₀ - V)/V₀ x 100 [formula]

`CCCCOc1ccc2cc(-c3nnnn3CC(=O)O)sc2c1` [Example 2-12, [5-(6-Butoxy-2-benzothienyl)tetrazol-1-yl]acetic acid] was tested. Which IC50 did it give?
Its IC50 is 24 nM.

How did the IC50 turn out when `COc1ccc2c(C)c(-c3nnnn3CC(=O)O)oc2c1` [Example 2-17, [5-(6-Methoxy-3-methyl-2-benzofuryl)tetrazol-1-yl]acetic acid] was run?
The IC50 was 160 nM.

With `O=C(O)Cn1nnnc1-c1csc2ccccc12` [Example 2-2, [5-(3-Benzothienyl)tetrazol-1-yl]acetic acid] as the compound, how does the IC50 read?
Its IC50 is 19 nM.

How did the IC50 turn out when `O=C(O)Cn1nnnc1-c1cc2ccccc2s1` [Example 2-1, [5-(2-Benzothienyl)tetrazol-1-yl]acetic acid] was run?
The IC50 was 24 nM.

How did the IC50 turn out when `COc1ccc2cc(-c3nnnn3CC(=O)O)sc2c1` [Example 2-11, [5-(6-Methoxy-2-benzothienyl)tetrazol-1-yl]acetic acid] was run?
The IC50 was 21 nM.

With `Cc1c(-c2nnnn2CC(=O)O)oc2ccccc12` [Example 2-16, [5-(3-Methyl-2-Benzofuryl)tetrazol-1-yl]acetic acid] as the compound, how does the IC50 read?
Its IC50 is 68 nM.

Which IC50 does the source give for `O=C(O)Cn1nnnc1-c1cccc2sccc12` [Example 2-3, [5-(4-Benzothienyl)tetrazol-1-yl]acetic acid] here?
Its IC50 is 26 nM.

With `O=C(O)Cn1nnnc1-c1ccc2ccsc2c1` [Example 2-4, [5-(6-Benzothienyl)tetrazol-1-yl]acetic acid] as the compound, how does the IC50 read?
The IC50 was 34 nM.

With `O=C(O)Cn1nnnc1-c1sc2ccccc2c1Cl` [Example 2-6, [5-(3-Chloro-2-benzothienyl)tetrazol-1-yl]acetic acid] as the compound, how does the IC50 read?
Its IC50 is 35 nM.

`Cc1ccc2cc(-c3nnnn3CC(=O)O)sc2c1` [Example 2-8, [5-(6-Methyl-2-benzothienyl)tetrazol-1-yl]acetic acid] was tested. Which IC50 did it give?
The IC50 was 18 nM.

Which IC50 does the source give for `COc1cc2cc(-c3nnnn3CC(=O)O)sc2c(OC)c1OC` [Example 2-14, [5-(5,6,7-Trimethoxy-2-benzothienyl)tetrazol-1-yl]acetic acid] here?
Its IC50 is 69 nM.

With `O=C(O)Cn1nnnc1-c1cc2ccccc2o1` [Example 2-15, [5-(2-Benzofuryl)tetrazol-1-yl]acetic acid] as the compound, how does the IC50 read?
The IC50 was 46 nM.

How did the IC50 turn out when `CC(C)c1ccc2cc(-c3nnnn3CC(=O)O)sc2c1` [Example 2-13, [5-(6-Isopropyl-2-benzothienyl)tetrazol-1-yl]acetic acid] was run?
The IC50 was 18 nM.

`Cc1c(-c2nnnn2CC(=O)O)sc2ccccc12` [Example 2-5, [5-(3-Methyl-2-benzothienyl)tetrazol-1-yl]acetic acid] was tested. Which IC50 did it give?
Its IC50 is 32 nM.

For `Cc1cccc2sc(-c3nnnn3CC(=O)O)cc12` [Example 2-7, [5-(4-Methyl-2-benzothienyl)tetrazol-1-yl]acetic acid], which IC50 is on record?
Its IC50 is 22 nM.

Which IC50 does the source give for `COc1ccc2sc(-c3nnnn3CC(=O)O)cc2c1` [Example 2-10, [5-(5-Methoxy-2-benzothienyl)tetrazol-1-yl]acetic acid] here?
Its IC50 is 28 nM.

With `COc1cccc2sc(-c3nnnn3CC(=O)O)cc12` [Example 2-9, [5-(4-Methoxy-2-benzothienyl)tetrazol-1-yl]acetic acid] as the compound, how does the IC50 read?
The IC50 was 20 nM.
